According to PubChem BioAssay AID330 (DTP/NCI, 2004):
Several values for one entry are separate records, joined by “and”; a condition that tells them apart may be missing. Equal entries are not always repeated. Inconclusive results and toxic doses are left out.

Test system: P388 leukemia ip, CD2F1 mice, survival T/C
Assay: NCI In Vivo Anticancer Drug Screen. Data for tumor model P388 Leukemia (intraperitoneal) in CD2F1 (CDF1) mice
Conditions: endpoint: median survival time, higher = longer survival
How it was run: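 Mice carrying the transplanted tumor received test compound or vehicle. Survival was recorded in each group, and the value is the treated-group measurement divided by that of the vehicle-treated control group.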

[1] = dose: 25.0 mg/kg/injection, schedule: Q01DX005 (ip), vehicle: saline with Tween-80
[2] = dose: 50.0 mg/kg/injection, schedule: Q01DX005 (ip), vehicle: saline with Tween-80
[3] = dose: 50.0 mg/kg/injection, schedule: Q01DX009 (ip), vehicle: saline with Tween-80
[4] = dose: 100.0 mg/kg/injection, schedule: Q01DX009 (ip), vehicle: saline with Tween-80
[5] = dose: 200.0 mg/kg/injection, schedule: Q01DX009 (ip), vehicle: saline with Tween-80

SMILES: COC1=CC(=O)C(c2cc(O)c(OC)cc2O)=CC1=O
- T/C (dose: 12.0 mg/kg/injection, schedule: Q01DX005 (ip), vehicle: saline with Tween-80): 114 % of control
- T/C [1]: 108 % of control
- T/C [2]: 99 % of control

SMILES: CC(C)(C)c1ccc(S(=O)(=O)C[CH2][Sn]([CH3])([CH3])[CH3])cc1
- T/C (dose: 6.25 mg/kg/injection, schedule: Q01DX009 (ip), vehicle: saline): 104 % of control
- T/C (dose: 12.5 mg/kg/injection, schedule: Q01DX009 (ip), vehicle: saline): 87 % of control

SMILES: Cc1cc2cc3c(=O)[nH]c(=O)nc-3n(CC(O)C(O)C(O)CO)c2cc1C (configuration not stated)
- T/C (dose: 15.0 mg/kg/injection, schedule: Q01DX005 (ip), vehicle: saline with Tween-80): 101 % of control and 103 % of control
- T/C (dose: 30.0 mg/kg/injection, schedule: Q01DX005 (ip), vehicle: saline with Tween-80): 116 % of control and 98 % of control

SMILES: Cc1cc(=O)[nH]c2c1C(=O)c1c(C)cc(=O)n(C)c1C2=O
- T/C (dose: 0.5 mg/kg/injection, schedule: Q01DX009 (ip), vehicle: DMSO): 99 % of control and 97 % of control
- T/C (dose: 1.0 mg/kg/injection, schedule: Q01DX009 (ip), vehicle: DMSO): 90 % of control
- T/C (dose: 2.0 mg/kg/injection, schedule: Q01DX009 (ip), vehicle: DMSO): 91 % of control
- T/C (dose: 4.0 mg/kg/injection, schedule: Q01DX009 (ip), vehicle: DMSO): 108 % of control

SMILES: O=C1C2CC3OC3CC2C(=O)N1CCCCCCN1C(=O)C2CC3OC3CC2C1=O (configuration not stated)
- T/C (dose: 50.0 mg/kg/injection, schedule: Q01DX005 (ip), vehicle: Klucel (hydroxypropylcellulose) (HPC)): 91 % of control
- T/C (dose: 100.0 mg/kg/injection, schedule: Q01DX005 (ip), vehicle: Klucel (hydroxypropylcellulose) (HPC)): 90 % of control
- T/C (dose: 200.0 mg/kg/injection, schedule: Q01DX005 (ip), vehicle: Klucel (hydroxypropylcellulose) (HPC)): 89 % of control

SMILES: O=c1[nH]c2cc(Cl)ccc2nc1/C=C(O)/C=C/c1ccccc1
- T/C (dose: 60.0 mg/kg/injection, schedule: Q01DX005 (ip), vehicle: saline with Tween-80): 98 % of control and 89 % of control
- T/C (dose: 120.0 mg/kg/injection, schedule: Q01DX005 (ip), vehicle: saline with Tween-80): 95 % of control
- T/C (dose: 240.0 mg/kg/injection, schedule: Q01DX005 (ip), vehicle: saline with Tween-80): 89 % of control and 91 % of control

SMILES: CCOC(=O)NC(=S)Nc1ccsc1
- T/C [3]: 99 % of control
- T/C [4]: 104 % of control
- T/C [5]: 102 % of control

SMILES: Cc1cc2c(C)c(-c3ccccc3)c(=O)oc2c(C#N)c1C
- T/C (dose: 15.0 mg/kg/injection, schedule: Q01DX005 (ip), vehicle: Klucel (hydroxypropylcellulose) (HPC)): 104 % of control
- T/C (dose: 30.0 mg/kg/injection, schedule: Q01DX005 (ip), vehicle: Klucel (hydroxypropylcellulose) (HPC)): 95 % of control
- T/C (dose: 60.0 mg/kg/injection, schedule: Q01DX005 (ip), vehicle: Klucel (hydroxypropylcellulose) (HPC)): 90 % of control and 95 % of control

SMILES: N#CC(C(=O)O)C1(c2ccccc2)CCCCC1 (configuration not stated)
- T/C [3]: 101 % of control
- T/C [4]: 93 % of control
- T/C [5]: 105 % of control

SMILES: NC1CCC2CCCCC2C1 (configuration not stated)
- T/C (dose: 100.0 mg/kg/injection, schedule: Q01DX001 (ip), vehicle: saline): 100 % of control
- T/C (dose: 200.0 mg/kg/injection, schedule: Q01DX001 (ip), vehicle: saline): 104 % of control

SMILES: CN(C)CCCN1c2ccccc2Sc2ccccc21
- T/C (dose: 18.75 mg/kg/injection, schedule: Q01DX009 (ip), vehicle: saline with Tween-80): 111 % of control
- T/C (dose: 18.75 mg/kg/injection, schedule: Q01DX009 (ip), vehicle: saline): 112 % of control
- T/C (dose: 37.5 mg/kg/injection, schedule: Q01DX009 (ip), vehicle: saline with Tween-80): 123 % of control
- T/C (dose: 37.5 mg/kg/injection, schedule: Q01DX009 (ip), vehicle: saline): 109 % of control

SMILES: O=C1c2cccc(O)c2C(=O)c2c(OC3OC(CO)C(O)C(O)C3O)cccc21 (configuration not stated)
- T/C (dose: 50.0 mg/kg/injection, schedule: Q01DX009 (ip), vehicle: saline): 94 % of control
- T/C (dose: 100.0 mg/kg/injection, schedule: Q01DX009 (ip), vehicle: saline): 93 % of control
- T/C (dose: 200.0 mg/kg/injection, schedule: Q01DX009 (ip), vehicle: saline): 88 % of control

SMILES: CC(O)c1nc2ccccc2nc1C(=O)Nc1ccccc1N (configuration not stated)
- T/C [2]: 101 % of control
- T/C (dose: 100.0 mg/kg/injection, schedule: Q01DX005 (ip), vehicle: saline with Tween-80): 88 % of control
- T/C (dose: 200.0 mg/kg/injection, schedule: Q01DX005 (ip), vehicle: saline with Tween-80): 92 % of control

SMILES: CCOC(=O)c1cc2c(=O)c3c(ccc4ccccc43)oc2n(C)c1=O
- T/C (dose: 12.5 mg/kg/injection, schedule: Q01DX005 (ip), vehicle: saline with Tween-80): 96 % of control
- T/C [1]: 94 % of control
- T/C [2]: 88 % of control

SMILES: CNC(=O)OCc1c(Cl)nc2n1CCS2
- T/C (dose: 25.0 mg/kg/injection, schedule: Q01DX001 (ip), vehicle: Klucel (hydroxypropylcellulose) (HPC)): 109 % of control
- T/C (dose: 50.0 mg/kg/injection, schedule: Q01DX001 (ip), vehicle: Klucel (hydroxypropylcellulose) (HPC)): 109 % of control
- T/C (dose: 100.0 mg/kg/injection, schedule: Q01DX001 (ip), vehicle: Klucel (hydroxypropylcellulose) (HPC)): 106 % of control

SMILES: CCCOC(=O)/C=C(\Br)C(=O)OCCC
- T/C (dose: 6.25 mg/kg/injection, schedule: Q01DX009 (ip), vehicle: saline with Tween-80): 113 % of control
- T/C (dose: 12.5 mg/kg/injection, schedule: Q01DX009 (ip), vehicle: saline with Tween-80): 116 % of control and 117 % of control
- T/C (dose: 25.0 mg/kg/injection, schedule: Q01DX009 (ip), vehicle: saline with Tween-80): 103 % of control
